Assay results published in publication PMC7730235, “Discovery of a Novel Class of Covalent Dual Inhibitors Targeting the Protein Kinases BMX and BTK” (International Journal of Molecular Sciences, 2020).

How the values were obtained:
Assay in all cases: Radiometric kinase assay (Reaction Biology HotSpot)
Type in all cases: biochemical
[1] = target: T1, HER2 (Homo sapiens, UniProt P04626); conditions: [ATP] = 10 μM; for remaining activity at 0.2 µM: 200 nM compound, duplicate mean, read-out: Residual Activity @ 200 nM, HER2
T1 construct: purchased Reaction Biology Corporation
T1 sequence (P04626 23-1255): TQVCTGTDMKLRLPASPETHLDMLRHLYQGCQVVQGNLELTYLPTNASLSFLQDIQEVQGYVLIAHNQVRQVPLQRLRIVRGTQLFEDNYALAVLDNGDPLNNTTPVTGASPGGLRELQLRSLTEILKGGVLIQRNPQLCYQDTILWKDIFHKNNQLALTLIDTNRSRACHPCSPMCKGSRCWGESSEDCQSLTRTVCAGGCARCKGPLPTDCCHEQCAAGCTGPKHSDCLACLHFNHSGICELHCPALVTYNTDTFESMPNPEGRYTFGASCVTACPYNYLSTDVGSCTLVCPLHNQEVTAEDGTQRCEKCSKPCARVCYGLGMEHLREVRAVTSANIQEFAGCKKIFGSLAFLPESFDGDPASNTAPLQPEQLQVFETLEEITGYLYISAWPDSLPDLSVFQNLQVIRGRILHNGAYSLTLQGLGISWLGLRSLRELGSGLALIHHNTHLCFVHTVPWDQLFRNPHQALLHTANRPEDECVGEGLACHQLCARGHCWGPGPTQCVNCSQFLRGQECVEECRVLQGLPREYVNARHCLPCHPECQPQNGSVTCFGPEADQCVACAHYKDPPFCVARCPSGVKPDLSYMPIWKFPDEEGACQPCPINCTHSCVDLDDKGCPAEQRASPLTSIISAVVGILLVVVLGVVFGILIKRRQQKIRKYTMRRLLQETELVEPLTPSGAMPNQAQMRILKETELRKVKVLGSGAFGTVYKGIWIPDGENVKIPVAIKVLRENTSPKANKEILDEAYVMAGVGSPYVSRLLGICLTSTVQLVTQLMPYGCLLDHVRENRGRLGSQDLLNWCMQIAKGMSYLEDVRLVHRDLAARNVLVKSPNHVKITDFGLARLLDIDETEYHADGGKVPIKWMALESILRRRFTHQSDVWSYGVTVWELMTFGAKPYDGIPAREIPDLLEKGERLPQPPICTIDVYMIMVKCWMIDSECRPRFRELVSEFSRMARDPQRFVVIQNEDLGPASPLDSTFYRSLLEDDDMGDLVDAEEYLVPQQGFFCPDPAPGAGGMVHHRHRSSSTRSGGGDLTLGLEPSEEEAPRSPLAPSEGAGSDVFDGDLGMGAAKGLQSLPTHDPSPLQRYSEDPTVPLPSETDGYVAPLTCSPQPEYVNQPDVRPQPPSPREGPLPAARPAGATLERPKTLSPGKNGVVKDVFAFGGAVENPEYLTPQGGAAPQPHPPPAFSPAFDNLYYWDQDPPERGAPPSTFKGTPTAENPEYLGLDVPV
Procedure: (§1) If not mentioned differently, in vitro profiling of compounds was performed at Reaction Biology Corporation using the HotSpot™ assay platform.

[2] = target: T2, EGFR (Homo sapiens, UniProt P00533); conditions: [ATP] = 10 μM; for remaining activity at 0.2 µM: 200 nM compound, duplicate mean, read-out: Residual Activity @ 200 nM, EGFR; for IC50: radiometric HotSpot, five-dose singlicate
T2 construct: purchased Reaction Biology Corporation
T2 sequence (P00533 25-1210): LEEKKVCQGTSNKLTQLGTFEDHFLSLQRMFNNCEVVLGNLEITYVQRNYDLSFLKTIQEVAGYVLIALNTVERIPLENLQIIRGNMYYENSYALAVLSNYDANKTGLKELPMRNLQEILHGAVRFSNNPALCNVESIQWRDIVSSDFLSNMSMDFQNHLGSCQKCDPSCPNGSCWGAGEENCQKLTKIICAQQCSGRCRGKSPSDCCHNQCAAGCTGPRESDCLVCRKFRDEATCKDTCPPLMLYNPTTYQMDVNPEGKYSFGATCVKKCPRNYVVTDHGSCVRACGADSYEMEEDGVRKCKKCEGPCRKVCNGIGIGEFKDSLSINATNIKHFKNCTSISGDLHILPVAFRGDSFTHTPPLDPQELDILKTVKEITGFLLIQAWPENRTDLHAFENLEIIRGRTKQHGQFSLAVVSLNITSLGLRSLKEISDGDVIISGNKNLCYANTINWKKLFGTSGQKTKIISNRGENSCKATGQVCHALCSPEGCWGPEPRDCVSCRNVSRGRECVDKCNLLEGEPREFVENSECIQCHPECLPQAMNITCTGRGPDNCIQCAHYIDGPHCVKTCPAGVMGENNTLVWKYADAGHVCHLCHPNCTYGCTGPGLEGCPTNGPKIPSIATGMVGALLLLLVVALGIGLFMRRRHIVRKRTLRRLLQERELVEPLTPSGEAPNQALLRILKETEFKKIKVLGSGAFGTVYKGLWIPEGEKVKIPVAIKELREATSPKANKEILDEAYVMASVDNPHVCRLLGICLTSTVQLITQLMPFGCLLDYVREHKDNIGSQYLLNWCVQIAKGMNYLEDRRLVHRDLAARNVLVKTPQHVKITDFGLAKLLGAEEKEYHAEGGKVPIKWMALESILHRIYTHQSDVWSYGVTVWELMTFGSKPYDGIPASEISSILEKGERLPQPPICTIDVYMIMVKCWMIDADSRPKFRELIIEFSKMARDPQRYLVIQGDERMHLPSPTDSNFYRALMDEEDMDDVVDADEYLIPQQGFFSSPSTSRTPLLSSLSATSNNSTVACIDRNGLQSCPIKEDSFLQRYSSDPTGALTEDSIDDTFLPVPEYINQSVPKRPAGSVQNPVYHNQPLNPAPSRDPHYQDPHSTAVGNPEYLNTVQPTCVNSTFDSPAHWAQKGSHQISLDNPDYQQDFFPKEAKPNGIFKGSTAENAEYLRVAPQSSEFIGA
Procedure: as §1

[3] = target: T3, HER4 (Homo sapiens, UniProt Q15303); conditions: [ATP] = 10 μM; for remaining activity at 0.2 µM: 200 nM compound, duplicate mean, read-out: Residual Activity @ 200 nM, HER4
T3 construct: purchased Reaction Biology Corporation
T3 sequence (Q15303 26-1308): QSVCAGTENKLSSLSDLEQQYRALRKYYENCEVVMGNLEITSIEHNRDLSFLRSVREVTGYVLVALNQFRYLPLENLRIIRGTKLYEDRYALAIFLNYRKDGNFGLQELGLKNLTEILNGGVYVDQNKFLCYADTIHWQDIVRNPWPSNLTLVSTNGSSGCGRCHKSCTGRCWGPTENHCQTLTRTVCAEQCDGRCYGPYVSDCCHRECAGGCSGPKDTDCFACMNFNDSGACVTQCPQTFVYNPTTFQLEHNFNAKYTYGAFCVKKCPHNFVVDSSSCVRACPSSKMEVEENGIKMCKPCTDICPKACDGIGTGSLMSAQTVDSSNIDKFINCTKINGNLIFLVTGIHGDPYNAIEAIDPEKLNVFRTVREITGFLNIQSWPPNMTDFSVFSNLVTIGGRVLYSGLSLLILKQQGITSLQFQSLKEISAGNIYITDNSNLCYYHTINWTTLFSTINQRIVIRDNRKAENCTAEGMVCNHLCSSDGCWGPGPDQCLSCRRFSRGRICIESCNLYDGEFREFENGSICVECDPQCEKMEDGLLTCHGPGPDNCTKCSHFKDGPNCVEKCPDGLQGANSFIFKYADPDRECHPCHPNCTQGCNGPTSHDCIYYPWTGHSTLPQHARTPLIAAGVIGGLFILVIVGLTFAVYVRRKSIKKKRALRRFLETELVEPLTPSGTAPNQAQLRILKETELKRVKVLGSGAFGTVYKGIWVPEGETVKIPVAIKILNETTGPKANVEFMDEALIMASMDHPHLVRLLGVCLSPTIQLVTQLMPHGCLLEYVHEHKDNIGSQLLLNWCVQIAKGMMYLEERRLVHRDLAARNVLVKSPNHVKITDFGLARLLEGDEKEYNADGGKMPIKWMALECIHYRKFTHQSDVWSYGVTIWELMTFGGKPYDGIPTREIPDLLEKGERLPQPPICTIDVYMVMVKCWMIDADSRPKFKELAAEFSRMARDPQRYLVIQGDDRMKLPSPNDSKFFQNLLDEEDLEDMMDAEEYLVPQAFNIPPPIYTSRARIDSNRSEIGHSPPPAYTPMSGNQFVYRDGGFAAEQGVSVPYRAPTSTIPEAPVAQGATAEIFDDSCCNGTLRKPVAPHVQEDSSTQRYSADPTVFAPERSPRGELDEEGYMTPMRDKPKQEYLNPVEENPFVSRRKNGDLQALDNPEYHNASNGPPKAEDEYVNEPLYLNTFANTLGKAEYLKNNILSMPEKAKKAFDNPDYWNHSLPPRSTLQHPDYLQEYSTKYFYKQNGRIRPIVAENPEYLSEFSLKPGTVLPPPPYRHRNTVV
Procedure: as §1

[4] = target: T4, TXK (Homo sapiens, UniProt P42681); conditions: for remaining activity at 0.2 µM: read-out: Residual Activity @ 200 nM, TXK; for IC50: five-dose singlicate
T4 construct: purchased Reaction Biology Corporation
T4 sequence (P42681 1-527): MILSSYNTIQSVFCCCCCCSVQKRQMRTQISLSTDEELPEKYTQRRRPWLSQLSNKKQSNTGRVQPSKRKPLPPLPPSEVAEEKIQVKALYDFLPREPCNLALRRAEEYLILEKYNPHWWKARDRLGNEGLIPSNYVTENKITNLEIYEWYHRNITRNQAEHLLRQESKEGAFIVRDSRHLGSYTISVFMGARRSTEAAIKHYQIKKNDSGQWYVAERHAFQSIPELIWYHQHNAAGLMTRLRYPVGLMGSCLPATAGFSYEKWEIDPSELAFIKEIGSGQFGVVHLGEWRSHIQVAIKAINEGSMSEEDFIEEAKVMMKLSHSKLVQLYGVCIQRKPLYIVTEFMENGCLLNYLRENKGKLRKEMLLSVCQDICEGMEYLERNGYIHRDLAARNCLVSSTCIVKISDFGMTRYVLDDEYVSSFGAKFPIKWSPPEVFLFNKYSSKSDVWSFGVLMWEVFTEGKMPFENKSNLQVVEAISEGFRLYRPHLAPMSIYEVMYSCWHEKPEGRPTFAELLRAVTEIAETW
Procedure: as §1

[5] = target: T5, BLK (Homo sapiens, UniProt P51451); conditions: [ATP] = 10 μM; for remaining activity at 0.2 µM: 200 nM compound, duplicate mean, read-out: Residual Activity @ 200 nM, BLK
T5 construct: purchased Reaction Biology Corporation
T5 sequence (P51451 whole entry): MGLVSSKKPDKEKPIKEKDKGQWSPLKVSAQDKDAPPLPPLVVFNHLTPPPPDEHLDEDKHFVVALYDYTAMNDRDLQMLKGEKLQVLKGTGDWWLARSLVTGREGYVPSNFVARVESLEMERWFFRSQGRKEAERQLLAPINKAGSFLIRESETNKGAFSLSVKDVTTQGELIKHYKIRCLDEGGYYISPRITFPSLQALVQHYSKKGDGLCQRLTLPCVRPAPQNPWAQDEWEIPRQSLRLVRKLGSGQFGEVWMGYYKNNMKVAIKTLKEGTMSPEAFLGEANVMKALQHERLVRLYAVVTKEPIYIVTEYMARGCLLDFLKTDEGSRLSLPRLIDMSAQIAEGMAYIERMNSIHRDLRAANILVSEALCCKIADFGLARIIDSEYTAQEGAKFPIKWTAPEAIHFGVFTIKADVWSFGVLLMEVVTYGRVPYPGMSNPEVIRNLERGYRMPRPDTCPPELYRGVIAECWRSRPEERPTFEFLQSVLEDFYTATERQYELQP
Procedure: as §1

[6] = target: T6, ITK (Homo sapiens, UniProt Q08881); conditions: 200 nM compound, duplicate mean, [ATP] = 10 μM; read-out: Residual Activity @ 200 nM, ITK
T6 construct: purchased Reaction Biology Corporation
T6 sequence (Q08881 1-620): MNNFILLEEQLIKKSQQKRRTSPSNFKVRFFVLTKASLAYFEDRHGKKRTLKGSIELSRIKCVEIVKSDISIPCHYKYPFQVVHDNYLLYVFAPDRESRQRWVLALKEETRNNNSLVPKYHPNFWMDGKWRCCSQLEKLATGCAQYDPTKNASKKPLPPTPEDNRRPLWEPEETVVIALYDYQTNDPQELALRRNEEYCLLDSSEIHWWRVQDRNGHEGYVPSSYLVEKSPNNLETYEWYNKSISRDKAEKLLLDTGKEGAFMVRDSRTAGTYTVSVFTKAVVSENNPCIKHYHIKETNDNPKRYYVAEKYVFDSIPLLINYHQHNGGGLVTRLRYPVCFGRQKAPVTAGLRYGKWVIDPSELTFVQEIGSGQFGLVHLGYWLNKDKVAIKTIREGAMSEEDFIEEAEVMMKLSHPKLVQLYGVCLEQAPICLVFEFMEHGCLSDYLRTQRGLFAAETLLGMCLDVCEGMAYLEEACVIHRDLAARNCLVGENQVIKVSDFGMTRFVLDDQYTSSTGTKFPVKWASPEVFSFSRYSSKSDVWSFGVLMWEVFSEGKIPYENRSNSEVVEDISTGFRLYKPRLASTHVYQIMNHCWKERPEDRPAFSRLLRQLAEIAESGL
Procedure: as §1

[7] = target: T7, JAK3 (Homo sapiens, UniProt P52333); conditions: [ATP] = 10 μM; for remaining activity at 0.2 µM: 200 nM compound, duplicate mean, read-out: Residual Activity @ 200 nM, JAK3; for IC50: radiometric HotSpot, five-dose singlicate
T7 construct: purchased Reaction Biology Corporation
T7 sequence (P52333 1-1124): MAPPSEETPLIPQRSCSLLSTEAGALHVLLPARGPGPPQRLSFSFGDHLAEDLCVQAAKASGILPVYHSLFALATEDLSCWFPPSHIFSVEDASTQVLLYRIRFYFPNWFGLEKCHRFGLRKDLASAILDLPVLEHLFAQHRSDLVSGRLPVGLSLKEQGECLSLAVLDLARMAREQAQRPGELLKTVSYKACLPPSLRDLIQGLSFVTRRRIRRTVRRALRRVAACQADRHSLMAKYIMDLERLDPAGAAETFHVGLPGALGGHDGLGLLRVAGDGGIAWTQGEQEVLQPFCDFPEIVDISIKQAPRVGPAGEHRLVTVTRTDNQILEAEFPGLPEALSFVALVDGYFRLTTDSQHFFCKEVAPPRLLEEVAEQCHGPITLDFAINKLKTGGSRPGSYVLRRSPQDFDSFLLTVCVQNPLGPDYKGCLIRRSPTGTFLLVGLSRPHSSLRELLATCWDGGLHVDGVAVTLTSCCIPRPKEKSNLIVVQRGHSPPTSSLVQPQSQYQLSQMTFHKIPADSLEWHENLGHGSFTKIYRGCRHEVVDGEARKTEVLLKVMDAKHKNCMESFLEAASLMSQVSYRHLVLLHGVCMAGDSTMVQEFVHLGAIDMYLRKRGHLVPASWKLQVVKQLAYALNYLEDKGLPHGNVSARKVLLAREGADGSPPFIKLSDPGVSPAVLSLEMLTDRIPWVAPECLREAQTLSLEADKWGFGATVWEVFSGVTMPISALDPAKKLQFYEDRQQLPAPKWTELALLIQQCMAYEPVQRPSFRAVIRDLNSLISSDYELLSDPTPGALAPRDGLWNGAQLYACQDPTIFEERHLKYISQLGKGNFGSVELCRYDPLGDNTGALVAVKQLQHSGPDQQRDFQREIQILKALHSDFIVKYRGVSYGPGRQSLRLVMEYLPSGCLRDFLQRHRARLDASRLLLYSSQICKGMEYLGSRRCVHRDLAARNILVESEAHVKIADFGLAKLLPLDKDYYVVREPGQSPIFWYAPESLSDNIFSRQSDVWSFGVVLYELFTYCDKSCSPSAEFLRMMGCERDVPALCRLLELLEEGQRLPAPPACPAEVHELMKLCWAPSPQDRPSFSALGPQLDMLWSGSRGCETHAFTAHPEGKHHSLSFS
Procedure: as §1

[8] = 200 nM compound, duplicate mean, [ATP] = 10 μM
[9] = radiometric HotSpot, [ATP] = 10 μM
[10] = radiometric HotSpot, five-dose singlicate

Row | remaining activity at 0.2 µM [1] | remaining activity at 0.2 µM [2] | remaining activity at 0.2 µM [3] | Residual Activity @ 200 nM, TXK [4, 8] | remaining activity at 0.2 µM [4, 8] | remaining activity at 0.2 µM [5] | remaining activity at 1 µM ([4]; 1 µM compound, radiometric HotSpot, read-out: residual activity at 1 µM, TXK) | IC50 [4, 9] | IC50 [2] | remaining activity at 0.2 µM [6] | remaining activity at 0.2 µM [7] | IC50 [7] | IC50 [1, 10] | IC50 [3, 10] | IC50 [5, 10] | Compound
1 | > 100% | > 100% | 95.4% | 88.8% | 89% | 95.1% | – | – | – | – | – | – | – | – | – | CCC(=O)Nc1cccc(-c2c[nH]c3ncc(NC(=O)C4CCCC4)cc23)c1 [Compound 12b, N-(3-(3-propionamidophenyl)-1H-pyrrolo[2,3-b]pyridin-5-yl)cyclopentanecarboxamide]
2 | – | – | – | – | – | – | 72% | > 1000 nM | – | – | – | – | – | – | – | C=CC(=O)Nc1cccc(-c2c[nH]c3ncc(C(=O)NC4CCCC4)cc23)c1 [Compound 11a, 3-(3-acrylamidophenyl)-N-cyclopentyl-1H-pyrrolo[2,3-b]pyridine-5-carboxamide]
3 | 95% | > 100% | 66.1% | – | 1.8% | 95.8% | – | – | 5250 nM | 88.1% | 0.8% | 0.2 nM | – | – | – | C=CC(=O)Nc1cccc(-c2c[nH]c3ncccc23)c1 [Compound 9a, N-(3-(1H-pyrrolo[2,3-b]pyridin-3-yl)phenyl)acrylamide]
4 | 41.1% | 14.9% | 4.7% | – | 0.3% | 8.6% | – | 10 nM | 12 nM | 94% | > 100% | > 10000 nM | 118 nM | 8.5 nM | 30 nM | C=CC(=O)Nc1cccc(-c2c[nH]c3ncc(NC(=O)c4cccs4)cc23)c1 [Compound 12c, N-(3-(3-acrylamidophenyl)-1H-pyrrolo[2,3-b]pyridin-5-yl)thiophene-2-carboxamide]
5 | 97% | 95.5% | 66.6% | – | 3.2% | 82.4% | – | 28 nM | > 10000 nM | 90.8% | 0.5% | < 0.1 nM | – | – | – | C=CC(=O)Nc1cccc(-c2c[nH]c3ncc(C(N)=O)cc23)c1 [Compound 10a, 3-(3-acrylamidophenyl)-1H-pyrrolo[2,3-b]pyridine-5-carboxamide]
